{
  "source": "patent US7208466B1",
  "about": "(priority 1999, dated 2007)",
  "system": "mice",
  "settings": "mouse, in vivo",
  "data": [
    {"smiles": "CN1CC[C@]23c4c5ccc(O)c4O[C@H]2[C@@H](O)C=C[C@H]3[C@H]1C5", "note": "[morphine]", "values": [
      {"measurement": "period over which effect declines / returns to control levels", "value": 5, "unit": "h"},
      {"measurement": "time of maximal effect", "value": 1, "unit": "h"}
    ]}
  ]
}
